Patent US6274559A, “Liver protection or treatment agents comprising asiatic acid derivatives as the active component” (Dong Kook Pharmaceutical Co., Ltd., priority 1997, dated 2001)

Experiments:
[1] = tested on: liver cell (galactosamine-induced toxicity); assay: Protection effect against galactosamine-induced toxicity of liver cell (GPT activity, relative protection); type: cell-based, male Wister rats; settings: 1.5 mM galactosamine, 14 h, healthy liver cell = 100%, toxicity = 0%; for Relative liver cell protection (%) at 5 µg/mL / Relative liver cell protection (%) at 50 µg/mL: Rattus norvegicus
From the text: To investigate the protection effect of the compounds of the formula 1 of this invention, i. e. 2-oxoasiatic acid, 2-methylasiatic acid, methyl 2α-acetoxyurs-12-en-23-al-3-on-28-oate, tetrahydropyranyl 3β,23-diacetoxyurs-12-en-28-oate, ethoxymethyl 2α-hydroxy-3β,23-isopropylidendioxyurs-12-en-28-oate, methyl 2,3-β-epoxy-12-en-23-carbomethoxyurs-28-oate, methyl 2,3-β-epoxy-12-en-23-benzamidours-28-oate, 1-ethoxyethyl asiatate and 2',3',4',6'-tetra-O-acetylglucosyl 2,3,23-tri-O-acetylurs-28-oate, against galactosamine-induced toxicity of liver cell, the following experiment was performed.
(§1) As experimental animals, male Wister rats weighing between 150~200 g were used. All rats were fasted during 18~24 h, and then the isolation of liver cells was performed by using the two-step collagenase flow-through method [D. M. Crisp and C. I. Pogson, Biochem., 126, 1009 (1972)], which is a form that the Berry & Friend method [M. N. Berry and D. S. Friend, J. Cell, Biol., 43, 5006 (1969)] is a little modified.
(§2) The isolated liver cells were incubated in a normal incubation medium for 1.5 h, and then more incubated in 1.5 mM galactosamine-containing incubation medium for 14 h to induce liver cells to get into the toxicity of galactosamine [Y. Kris, M. Tohkin and H. Hikino, J. Nat. Prod., 46, 841 (1983)].
(§3) These liver cells getting into toxicity induced by said methods were incubated separately in the incubation mediums containing said compounds of 5 μg/ml and 50 μg/ml. Then, withdrawing the incubation medium, the activity of glutamic pyruvic transaminase (GPT) was determined by the Reitman-Frankel method [S. Reitman and S. Frankel, Am, J. Cli. Pathol., 28, 56 (1957)]. The GPT value of healthy liver cell was defined as 100%, and that of liver cell getting into toxicity induced by said methods was defined as 0%. At the basis of said definition, the GPT values of liver cells recovered from galactosamine-induced toxicity by the compounds were converted into relative protections (%) to show the protection effect of liver cell against the toxicity by the compounds.

[2] = tested on: liver cell (carbon tetrachloride-induced toxicity); assay: Protection effect against carbon tetrachloride-induced toxicity of liver cell (GPT activity, relative protection); type: cell-based, male Wister rats; settings: 10 mM carbon tetrachloride, 1.5 h; for Relative liver cell protection at 5 µg/mL / Relative liver cell protection at 50 µg/mL: Rattus norvegicus
Procedure: as §1, §3
To investigate the protection effect of the compounds of the formula 1 of this invention against carbon tetrachloride-induced toxicity of liver cell, the following experiment was performed.
(§4) The experiment was performed in the same manner as in Experimental example 1, except that carbon tetrachloride was used by following method to induce liver cells to get into the toxicity.
(§5) The isolated liver cells were incubated in a normal incubation medium for 24 h, and then more incubated in 10 mM carbon tetrachloride-containing incubation medium for 1.5 h to induce liver cells to get into the toxicity of carbon tetrachloride [Y. Kiso, Y. Suzuki and H. Hikino, Planta. Med., 49, 222 (1983)].

[3] = tested on: liver cell (galactosamine-induced toxicity); assay: Concentration dependency of protection effect against galactosamine-induced toxicity of liver cell; type: cell-based, male Wister rats; settings: for Relative liver cell protection (%) at 1 µM / Relative liver cell protection (%) at 10 µM / Relative liver cell protection (%) at 50 µM / Relative liver cell protection (%) at 100 µM / Relative liver cell protection (%) at 200 µM: Rattus norvegicus
Procedure: as §1, §2, §3
To investigate concentration dependency of the protection effect of the compounds of the formula 1 of this invention, i. e. 2-oxoasiatic acid, 2-methylasiatic acid and methyl 2α-acetoxyurs-12-en-23-al-3-on-28-oate, against galactosamine-induced toxicity of liver cell, the experiment was performed in the same manner as in Experimental example 1, except that the compound concentrations tested were 1, 10, 50, 100 and 200 μM.

male ICR mice = assay: Safety study through toxicity test in mice by peritoneal injection
Procedure: (§6) Administering 2-oxoasiatic acid of various concentrations to male ICR mice weighing between 20~25 g by peritoneal injection, the toxicity of 2oxoasiatic acid was tested.

in vivo = settings: mouse, in vivo, ip
Procedure: as §6

[4] = tested on: liver cell (carbon tetrachloride-induced toxicity); assay: Concentration dependency of protection effect of liver cell against carbon tetrachloride-induced toxicity; type: cell-based, male Wister rats
Procedure: as §1, §3, §4, §5
To investigate the concentration dependency of the protection effect of the compounds of the formula 1 of this invention, i. e. 2-oxoasiatic acid, against carbon tetrachloride-induced toxicity of liver cell, the experiment was performed in the same manner as in Experimental example 2, except that the compound concentrations tested were 1, 10, 50, 100 and 200 μM.

[5] = 5 μg/ml of compound concentration
[6] = 50 μg/ml of compound concentration

Compound | Relative liver cell protection (%) at 5 µg/mL [1, 5] [%] | Relative liver cell protection (%) at 50 µg/mL [1, 6] [%] | Relative liver cell protection at 5 µg/mL [2, 5] [%] | Relative liver cell protection at 50 µg/mL [2, 6] [%] | Relative liver cell protection (%) [1, 5] [%] | Relative liver cell protection (%) [1, 6] [%] | Relative liver cell protection (%) [2, 5] [%] | Relative liver cell protection (%) [2, 6] [%] | concentration dependency of protection effect ([3]; 100 and 200 μM) | concentration dependency of protection effect ([3]; range of 1~50 μM) | also measured
CCOCOC(=O)[C@]12CC[C@@H](C)[C@H](C)[C@H]1C1=CC[C@@H]3[C@@]4(C)C[C@@H](O)[C@@H]5OC(C)(C)OC[C@@]5(C)[C@@H]4CC[C@@]3(C)[C@]1(C)CC2 [ethoxymethyl 2α-hydroxy-3β,23-isopropylidendioxyurs-12-en-28-oate] | 66 | 45 | 15 | 5 |  |  |  |  |  |  | 
2',3',4',6'-tetra-O-acetylglucosyl 2,3,23-tri-O-acetylurs-28-oate |  |  |  |  | 79 | 21 | 39 | 34 |  |  | 
CC(=O)OC[C@@]1(C)[C@@H]2CC[C@]3(C)[C@H](CC=C4[C@@H]5[C@@H](C)[C@H](C)CC[C@]5(C(=O)OC5CCCCO5)CC[C@]43C)[C@@]2(C)CC[C@@H]1OC(C)=O (stereo partly drawn) [tetrahydropyranyl 3β,23-diacetoxyurs-12-en-28-oate] | 58 | 66 | 42 | 30 |  |  |  |  |  |  | 
COC(=O)[C@]12CC[C@@H](C)[C@H](C)[C@H]1C1=CC[C@@H]3[C@@]4(C)C[C@@H](OC(C)=O)C(=O)[C@@](C)(C=O)[C@@H]4CC[C@@]3(C)[C@]1(C)CC2 [methyl 2α-acetoxyurs-12-en-23-al-3-on-28-oate] | 42 | 80 | 21 | 0 |  |  |  |  | the protection effects of them rapidly decreased | the greater were the protection effects | Relative liver cell protection (%) at 1 µM ([3]; compound 1 μM): 27.4%; Relative liver cell protection (%) at 10 µM ([3]; compound 10 μM): 39%; Relative liver cell protection (%) at 50 µM ([3]; compound 50 μM): 60%; Relative liver cell protection (%) at 100 µM ([3]; compound 100 μM): 33.1%; Relative liver cell protection (%) at 200 µM ([3]; compound 200 μM): 0%
2-methylasiatic acid |  |  |  |  | 43 | 62 | 29 | 9 | the protection effects of them rapidly decreased | the greater were the protection effects | Relative liver cell protection (%) ([3]; compound 1 μM): 31.9%; Relative liver cell protection (%) ([3]; compound 10 μM): 40.3%; Relative liver cell protection (%) ([3]; compound 50 μM): 58.2%; Relative liver cell protection (%) ([3]; compound 100 μM): 43.9%; Relative liver cell protection (%) ([3]; compound 200 μM): 0.0%
methyl 2,3-β-epoxy-12-en-23-carbomethoxyurs-28-oate |  |  |  |  | 26 | 53 | 0 | 0 |  |  | 
C[C@H]1[C@H](C)CC[C@]2(C(=O)O)CC[C@]3(C)C(=CC[C@@H]4[C@@]5(C)CC(=O)[C@H](O)[C@@](C)(CO)[C@@H]5CC[C@]43C)[C@H]12 [2-Oxoasiatic acid, 2-oxoasiatic acid] | 15 | 62 | 30 | 44 |  |  |  |  | the protection effects of them rapidly decreased | the greater were the protection effects | opisthotonus (male ICR mice; male ICR mice, peritoneal injection, fatal dose): opisthotonus was showed at a fatal dose; body weight of surviving mice (male ICR mice; mouse, in vivo): did not change; motor activity (male ICR mice; mouse, in vivo): motor activity was decreased dose-dependently; pilo-erection, tachypnea and convulsion (male ICR mice; mouse, in vivo): induced dose-dependently; recovery of surviving mice (male ICR mice; mouse, in vivo): rapid recovery; type of toxicity (male ICR mice; mouse, in vivo): typical toxicity of central nervous system; LD50 (in vivo): 750 mg/kg; relative liver cell protection at 1 µM ([4]; Rattus norvegicus, compound 1 μM): 1.6%; relative liver cell protection at 10 µM ([4]; Rattus norvegicus, compound 10 μM): 5%; relative liver cell protection at 50 µM ([4]; Rattus norvegicus, compound 50 μM): 3.3%; relative liver cell protection at 100 µM ([4]; Rattus norvegicus, compound 100 μM): 30.9%; relative liver cell protection at 200 µM ([4]; Rattus norvegicus, compound 200 μM): 48.1%; concentration dependency of protection effect ([4]; concentration range of 1~200 μM): the greater was the protection effects; Relative liver cell protection (%) at 1 µM ([3]; compound 1 μM): 29.8%; Relative liver cell protection (%) at 10 µM ([3]; compound 10 μM): 43.2%; Relative liver cell protection (%) at 50 µM ([3]; compound 50 μM): 50.4%; Relative liver cell protection (%) at 100 µM ([3]; compound 100 μM): 25.3%; Relative liver cell protection (%) at 200 µM ([3]; compound 200 μM): 8.5%
methyl 2,3-β-epoxy-12-en-23-benzamidours-28-oate |  |  |  |  | 38 | 40 | 0 | 23 |  |  | 
CCOC(C)OC(=O)[C@]12CC[C@@H](C)[C@H](C)[C@H]1C1=CC[C@@H]3[C@@]4(C)C[C@@H](O)[C@H](O)[C@@](C)(CO)[C@@H]4CC[C@@]3(C)[C@]1(C)CC2 (stereo partly shown) [1-Ethoxyethyl asiatate, 1-ethoxyethyl asiatate] | 66 | 0 | 8 | 7 |  |  |  |  |  |  | 
